Results from patent publication US5312831A, “Urethanes and ureas that induce cytokine production” (American Cyanamid Company, priority 1993, dated 1994).

Assays:
IL-6 [1] = assay: Serum IL-6 production in mice after single s.c. injection (7TD1 bioassay); assay type: in vivo, mouse; settings: serum 4 h post injection
Protocol: Description of Biological Assays Interleukin 6(IL-6) assay for structure function analysis--Test compounds are dissolved in water and administered subcutaneously in 0.2 ml to deliver a dose of 0.1-10 mg/kg. The less soluble compounds are first dissolved in 100% ethanol and then brought to the appropriate concentration in water. Four hours post injection, the mice are bled and the serum is retrieved. The IL-6 dependent cell line 7TDl is used to assay serial dilutions of sera for IL-6 content. 7TDl cells (1×10^4) are placed in microtiter wells and incubated at 37° C. for 72 hours with standard recombinant mouse IL-6 or with dilutions of serum to be tested. Over the last 6 hours, the cells are pulsed with ^3 H-Tdr (μci). Cells are then harvested and the degree of proliferation determined by the uptake of ^3 H-Tdr as measured by liquid scintillation spectrometry. The concentration of IL-6 in serum is calculated from standard curves utilizing recombinant IL-6 from R&D Systems Inc. and are reported in units of IL-6 activity as defined by the manufacturer.

IL-6 [2] = assay: Serum IL-6 in 5-FU treated monkeys; assay type: in vivo, cynomolgous monkeys
Protocol: Groups of 3 cynomolgous monkeys are treated with 5FU at 125 mg/kg and
beginning 24 hours later treated with test compound s.c. at 0.05 mg/kg.
The data reported are from sera taken 4 hours after test compound

bone marrow CFU-GM = assay: Bone marrow CFU-GM in 5-FU treated mice; assay type: in vivo, mouse
Protocol: Colony forming assays Granulocyte-Macrophage (CFU-GM)--Mice are treated with 150 mg/kg of 5-Fu and treatment with test compound begins 24 hrs. later. On consecutive days, mice are killed by cervical dislocation and the femurs removed under sterile conditions. Femurs are flushed with 1 ml of ice cold medium (Iscove's supplemented with 20% FCS, 1% penicillin-streptomycin, 1% glutamine and 5×10^-5 M 2-mercaptoethanol). Bone marrow cells (5×10^5) are then plated in 12×75 mm tissue culture plates in 3 ml of warm ararose (3%) in Iscove's medium with 100 Units/ml of recombinant mouse GM-CSF purchased from Genzyme (Boston, Mass.). Plates are incubated for 7 days at 37° C. in 5% CO2. After 7 days, colonies of 50 cells or greater are enumerated under a dissecting microscope. 5-Fluorouracil (5-FU) Induced Neutropenia In Mice--Mice are treated ip with 150 mg/kg of the chemotherapy agent 5-FU which induces a severe loss of neutrophils in the peripheral blood 5-6 days later. Twenty-four hrs. after the dose, treatment with the test compounds is initiated. The effect of the test compounds on recovery of neutrophil progenitor cells in the bone marrow is determined by the CFU-GM assay. […]

In the case of `CCCCCCC(=O)N[C@@H](C(=O)O)[C@@H](C)OC(=O)N[C@@H](CCC[C@@H](N)C(=O)O)C(=O)N[C@H](C)C(=O)O` [Example 28, [R-(R*,R*)]-N-(R)-6-carboxy-N^2-[[2-carboxy-1-methyl-2-[(1-oxoheptyl)amino]ethoxy]carbonyl]-L-lysyl]-D-Alanine], the IL-6 (IL-6 [1]; 0.1 mg/kg s.c.) is reported as 4802 ± 804 U/ml, the IL-6 (IL-6 [1]; 1.0 mg/kg s.c.) is reported as 3844 ± 482 U/ml and the IL-6 (IL-6 [1]; 10.0 mg/kg s.c.) is reported as 1718 U/ml. For the same molecule, the “Serum IL-6” value (IL-6 [2]; 0.05 mg/kg s.c., 5FU 125 mg/kg, sera 4 hours after treatment, 5-FU only 0) was 2579 ± 318 Units/ml, the “IL-6 production in the serum of 5-FU treated primates (in words)” value (IL-6 [2]; monkey, in vivo) was “induces IL-6 and GCSF production” and the CFU-GM/femur (bone marrow CFU-GM; 0.1 mg/kg daily s.c., day 3 after 5FU 150 mg/kg, normal 30184 ± 3677, 5-FU only 805 ± 512) was 6055 ± 534 CFU-GM/femur. For the same molecule, the “CFU-GM in the bone marrow (in words)” value (bone marrow CFU-GM; 5-FU treated mice) was “increase of CFU-GM”.
